Experimental data published in US6969714B2, “Imidazolo-5-YL-2-anilino-pyrimidines as agents for the inhibition of the cell proliferation” (AstraZeneca AB, priority 2000, dated 2005).
pIC50: −log10 of the molar value.

Molecular target: T1, CDK2/Cyclin E (Homo sapiens, UniProt P24941)
T1 construct: The open reading frames of CDK2 and Cyclin E were isolated; made in house; host or cells: Sf21 (Spodoptera frugiperda) insect cells, baculovirus co-infection; the GST-Rb substrate was made in E. coli BL21 (DE3) pLysS
Assay: in vitro kinase assay, Scintillation Proximity Assay, incorporation of [γ-33-P]-ATP into GST-Rb
Format: biochemical
Details: GST-Rb substrate, 0.2 μM ATP, 60 minutes at room temperature, read-out: CDK2 inhibitory activity IC50
Procedure: The compounds were tested in an in vitro kinase assay in 96 well format using Scintillation Proximity Assay (SPA—obtained from Amersham) for measuring incorporation of [γ-33-P]-Adenosine Triphosphate into a test substrate (GST-Retinoblastoma protein; GST-Rb). In each well was placed the compound to be tested (diluted in DMSO and water to correct concentrations) and in control wells either roscovitine as an inhibitor control or DMSO as a positive control. […]
The plates were sealed with Topseal-S plate sealers, left for two hours then spun at 2500 rpm, 1124×g., for 5 minutes. The plates were read on a Topcount for 30 seconds per well. […]
E. coli paste was resuspended in 10 ml/g of NETN buffer (50 mM Tris pH 7.5, 120 mM NaCl, 1 mM EDTA, 0.5% v/v NP-40, 1 mM PMSF, 1 ug/ml leupeptin, 1 ug/ml aprotinin and 1 ug/ml pepstatin) and sonicated for 2×45 seconds per 100 ml homogenate. […] The final product was analysed by Sodium Dodeca Sulfate (SDS) PAGE (Polyacrylamide gel) using 8-16% Tris-Glycine gels (Novex, San Diego, USA).
The open reading frames of CDK2 and Cyclin E were isolated by reverse transcriptase-PCR using HeLa cell and activated T cell mRNA as a template and cloned into the insect expression vector pVL1393 (obtained from Invitrogen 1995 catalogue number: V1392-20). […]

## Cn1cncc1-c1ccnc(Nc2ccccc2)n1 [Example 14, 2-Anilino-4-(1-methylimidazol-5-yl)pyrimidine]
  pIC50: 6.84
